What was measured:
Assay in all cases: cells
Design in all cases: Cell growth inhibition, sulforhodamine B total protein staining
HL60 = conditions: Homo sapiens, HL-60; 72 h growth; read-out: Cell growth inhibition IC50/µM
Method: (§1) Cell panel profiling A panel of 94 cell lines was exposed to Glupin for 72 h to assess the influence on cell growth (Oncolead, Germany). Cell growth was determined using sulforhodamine B assay. Measurements were performed using a total protein staining protocol. Briefly, after treatement cells were fixed addition of 10% TCA (for adherent growing cells) or 50% TCA (for semi-adherent growing cells or cells growing in suspension). After an incubation at 4°C for 1 h, plates were washed twice with 400 μl of deionized water and dried. Cells were then stained with 100 μl of 0.04% wt/v sulforhodamine B. Plates were incubated at room temperature for at least 30 min and washed six times with 1% acetic acid to remove unbound stain. […] This effect was much stronger at a physiological glucose concentration (5 mM; Figure 5 b,c). […] IC50 values lower than 300 nM were obtained for more than 20 cell lines, whereas 24 cell lines were not affected by the compound, among them the peripheral blood mononuclear control cells (PBMCs). Sensitivity to Glupin was detected across various tissue types (Table S6).

K562 = conditions: Homo sapiens, K562; 72 h growth; read-out: Cell growth inhibition IC50/µM
Method: as §1

A673 = conditions: Homo sapiens, A673; 72 h growth; read-out: Cell growth inhibition IC50/µM
Method: as §1

MCF7 = conditions: Homo sapiens, MCF7; 72 h growth; read-out: Cell growth inhibition IC50/µM
Method: as §1

MINO = conditions: Homo sapiens, MINO; 72 h growth; read-out: Cell growth inhibition IC50/µM
Method: as §1

U87MG = conditions: Homo sapiens, U-87 MG; 72 h growth; read-out: Cell growth inhibition IC50/µM
Method: as §1

MT3 = conditions: MT-3; 72 h growth; read-out: Cell growth inhibition IC50/µM
Method: as §1

JEG3 = conditions: Homo sapiens, JEG-3; 72 h growth; read-out: Cell growth inhibition IC50/µM
Method: as §1

J82 = conditions: Homo sapiens, J82; 72 h growth; read-out: Cell growth inhibition IC50/µM
Method: as §1

MDAMB436 = conditions: Homo sapiens, MDA-MB-436; 72 h growth; read-out: Cell growth inhibition IC50/µM
Method: as §1

RAMOS = conditions: Homo sapiens, Ramos; 72 h growth; read-out: Cell growth inhibition IC50/µM
Method: as §1

RDES = conditions: RD-ES; 72 h growth; read-out: Cell growth inhibition IC50/µM
Method: as §1

DLD1 = conditions: Homo sapiens, DLD-1; 72 h growth; read-out: Cell growth inhibition IC50/µM
Method: as §1

MV411 = conditions: Homo sapiens, MV4-11; 72 h growth; read-out: Cell growth inhibition IC50/µM
Method: as §1

NCIH460 = conditions: Homo sapiens, NCI-H460; 72 h growth; read-out: Cell growth inhibition IC50/µM
Method: as §1

SKBR3 = conditions: Homo sapiens, SK-BR-3; 72 h growth; read-out: Cell growth inhibition IC50/µM
Method: as §1

SKHEP1 = conditions: Homo sapiens, SK-HEP1; 72 h growth; read-out: Cell growth inhibition IC50/µM
Method: as §1

ACHN = conditions: Homo sapiens, ACHN; 72 h growth; read-out: Cell growth inhibition IC50/µM
Method: as §1

HELA = conditions: Homo sapiens, HeLa; 72 h growth; read-out: Cell growth inhibition IC50/µM
Method: as §1

SUDHL6 = conditions: Homo sapiens, SU-DHL-6; 72 h growth; read-out: Cell growth inhibition IC50/µM
Method: as §1

GRANTA519 = conditions: Homo sapiens, Granta-519; 72 h growth; read-out: Cell growth inhibition IC50/µM
Method: as §1

SNB75 = conditions: Homo sapiens, SNB-75; 72 h growth; read-out: Cell growth inhibition IC50/µM
Method: as §1

COLO205 = conditions: Homo sapiens, COLO 205; 72 h growth; read-out: Cell growth inhibition IC50/µM
Method: as §1

IC50 (HL60): 0.112 µM
IC50 (K562): 0.137 µM
IC50 (MCF7): > 30 µM
IC50 (U87MG): > 30 µM
IC50 (MDAMB436): 11.1 µM
IC50 (RAMOS): 0.212 µM
IC50 (DLD1): 0.825 µM
IC50 (MV411): > 30 µM
IC50 (SKBR3): > 30 µM
IC50 (SKHEP1): 0.569 µM
IC50 (ACHN): > 30 µM
IC50 (HELA): 1.25 µM
IC50 (SUDHL6): 0.092 µM
IC50 (COLO205): 3.73 µM
Compound: CCOC(=O)Cn1c2c(c3ccccc31)C[C@@H]1C[C@H]2C(OC)CN1C(=O)c1cccnc1SC (single isomer, unassigned; (+)) [(+)-5a, Glupin]
IC50 (A673): 3.64 µM
IC50 (MINO): 1.77 µM
IC50 (MT3): 2.54 µM
IC50 (JEG3): 0.933 µM
IC50 (J82): 7.25 µM
IC50 (RDES): 3.71 µM
IC50 (NCIH460): 0.572 µM
IC50 (GRANTA519): > 30 µM
IC50 (SNB75): 9.13 µM

Source: paper PMC6900016, “Synthesis of Indomorphan Pseudo‐Natural Product Inhibitors of Glucose Transporters GLUT‐1 and ‐3” (Angewandte Chemie (International Ed. in English), 2019)
